Results published in patent publication US20170251943A1, “Systems Level State Characteristics in Experimental Treatment of Disease” (priority 2014, published 2017).

Experiments:
[1] = test system: medial forebrain bundle 6-OHDA hemilesioned rat; experiment: Levodopa-induced dyskinesia, dyskinetic symptoms in 6-OHDA hemilesioned rat; format: in vivo
From the text: To characterize the CNS effects of experimental treatment of symptoms in levodopa-induced dyskinesia, the most widely used model of this disease condition was employed—the medial forebrain bundle 6-OHDA hemilesioned rat. In this model, parkinsonism is induced by the injection of this neurotoxin resulting in extensive neurotoxic lesions of midbrain dopaminergic neurons projecting to the forebrain. By injecting the […] in only one of the hemispheres the other hemisphere can be used as an internal control in different recordings conditions/behavioral situations. Following a period of levodopa treatment, animals developed dyskinetic symptoms affecting the side of the body contralateral to the brain lesion (Halje et al., 2012). Thus, neuronal recordings obtained in the parkinsonian and dyskinetic condition can be compared to a healthy control condition. Rats were chronically implanted with 128 recording electrodes according to the methods described above and CNS activity patterns were recorded in a number of experiments performed in four adult female Sprague-Dawley rats.

[2] = test system: medial forebrain bundle 6-OHDA hemilesioned rat; experiment: CNS state characterization (LFP PSDs / spike trains, cortico-basal ganglia-thalamic loop) in dyskinetic 6-OHDA hemilesioned rat; format: in vivo
Protocol: Power spectral densities (PSDs) are calculated with a multitaper method (Pesaran, 2008) (50%-overlapping 8-s windows, 7 tapers) implemented in Chronux 2.0 (Mitra and Bokil, 2007). To stabilize the variance and to emphasize narrowband oscillations over wideband signals, PSDs are normalized to the pink noise background according to Halje et al. (Halje et al., 2012), but with one important adaptation: Due to the complexity of the data it is not practical to manually pick frequency bands with pure pink noise in all structures and conditions to get unbiased estimates of the noise background. Instead the whole frequency axis is divided into 20 logarithmically spaced bands (1-1.3, 1.3-1.7, . . . , 151.3-200 Hz) and the median power of each band is used for the fitting of the pink noise power curve S(f)=A/f^B. The pink noise normalization allows us to describe deviations from the pink noise floor in terms of the unit dBpink. As a final step, an average spectrogram is calculated for each structure, based on the spectrograms for each individual local bipolar LFP time series.
Offline spike sorting can be performed with commercially available software to obtain spike trains of individual neurons, for example Offline Sorter by Plexon Inc. Standard spike train statistics like average firing rate and coefficient of variation is then calculated and used as features in the state-space analysis.
elements, where each element is a measured variable. Typically, there are a couple of thousand variables in such a state description and it is necessary to reduce the dimensionality before it is practical to make further state characterizations. […]
To characterize the CNS effects of experimental treatment of symptoms in levodopa-induced dyskinesia, the most widely used model of this disease condition was employed—the medial forebrain bundle 6-OHDA hemilesioned rat. […] Rats were chronically implanted with 128 recording electrodes according to the methods described above and CNS activity patterns were recorded in a number of experiments performed in four adult female Sprague-Dawley rats. […]

rats [3] = experiment: Behavioral changes in rats treated with psychosis-inducing drugs; format: in vivo, rat; settings: 10-50 min after injection
rats [4] = experiment: CNS state characterization (LFP PSDs, diencephalic/telencephalic structures) in pharmacological psychosis-like states; format: in vivo, rat; settings: Hippocampus, Nucleus Accumbens, Thalamus; pink noise normalized, FIG. 6
Protocol: Power spectral densities (PSDs) are calculated with a multitaper method (Pesaran, 2008) (50%-overlapping 8-s windows, 7 tapers) implemented in Chronux 2.0 (Mitra and Bokil, 2007). To stabilize the variance and to emphasize narrowband oscillations over wideband signals, PSDs are normalized to the pink noise background according to Halje et al. (Halje et al., 2012), but with one important adaptation: Due to the complexity of the data it is not practical to manually pick frequency bands with pure pink noise in all structures and conditions to get unbiased estimates of the noise background. […] As a final step, an average spectrogram is calculated for each structure, based on the spectrograms for each individual local bipolar LFP time series. […]
For this purpose, a number of diencephalic and telencephalic structures were recorded in parallel including: hippocampus [corresponding to anterior hippocampus in humans], nucleus accumbens [core and shell], medial prefrontal cortex and anterior gyrus cinguli (adapted to rodent anatomy), the mediodorsal nucleus and the medial geniculate nucleus in thalamus.

## CCCN(CCC)C1CCc2cccc(O)c2C1 (stereo not shown) [8-OH-DPAT]
[1]; 1 mg/kg and 0.4 mg/kg i.p. at the time point of peak dyskinesia, two experiments
  effect on dyskinetic symptoms: effectively suppress dyskinetic symptoms
[2]; dyskinetic rat, state spaces from spike trains and LFP PSDs, FIGS. 4 and 5
  shift of CNS state in state space: primarily shifted the dyskinetic state back towards the parkinsonian state

## CNC1(c2ccccc2Cl)CCCCC1=O (stereo not shown) [Ketamine]
Rats [3]
  behavioral change (locomotion): increased locomotion

## CCN(CC)C(=O)[C@@H]1C=C2c3cccc4[nH]cc(c34)C[C@H]2N(C)C1 [LSD, lysergic acid diethylamide]
Rats [4]
  LFP power spectra of the drug-induced psychosis-like state: high-frequency narrow band oscillation in n. Accumbens

## COc1ccccc1N1CCN(CCN(C(=O)C2CCCCC2)c2ccccn2)CC1 [WAY100635]
[1]; given after 8-OH-DPAT in dyskinetic rat
  reversal of the anti-dyskinetic effect of the 5-HT1A agonist 8-OH-DPAT: fully reversed
[2]; dyskinetic+8-OH-DPAT rat, LFP PSDs in eight structures, FIG. 4
  reversal of 8-OH-DPAT effect on CNS state (LFP power spectral densities): reversed the effect of 8-OH-DPAT inducing a state that closely resembles the initial dyskinetic state
[2]; dyskinetic+8-OH-DPAT rat, firing rates in eight structures of lesioned hemisphere, FIG. 5
  reversal of 8-OH-DPAT effect on CNS state (relative firing rates of neurons): reversed the effect of 8-OH-DPAT to a state closely resembling the initial dyskinetic state
